The values that follow come from patent US20160000762A1, “IMPROVING COGNITIVE FUNCTION” (THE REGENTS OF THE UNIVERSITY OF CALIFORNIA, priority 2013, published 2016).

Assay [1] relates to T1, APP.
T1 construct: expressed in transfected cells; host or cells: primary hippocampal neurons from E19 Sprague-Dawley rats
Briefly: Live cell surface immunostaining, primary hippocampal neurons. In kind it is cell-based, Sprague-Dawley rats. The conditions noted are these: 5 μM, 24 h. The procedure:
Primary neuron culture and immunostaining. Primary hippocampal neurons from E19 Sprague-Dawley rats were cultured at 150 cells/mm^2 as previously described (Pak et al., 2001). Neurons were transfected using Lipofectamine™ 2000 (Invitrogen, Carlsbad, Calif., USA) or calcium phosphate precipitation with GFP+PLL, GFP+APP shRNA, or GFP+APP and treated with BTA-EG4. The following antibodies were used: mouse anti-GFP (Novus Biologicals, 9F9.F9), rabbit anti-GFP (Invitrogen, A11122), rabbit anti-GluR1 (Calbiochem, PC246), mouse anti-GluR2 (BD Pharmagen, 556341), mouse anti-postsynaptic density (PSD)-95 (NeuroMabs, Davis, Calif., USA), mouse anti-Synaptophysin (Sigma Aldrich, s5768), rabbit APP N-terminal (Sigma-Aldrich, A8967), anti-Ras (BD Biosciences, 610001), anti-RasGRF1 (Santa Cruz, C-20; BD Biosciences, 610149), anti-ERK1/2 (Cell Signaling, 4695), anti-p-ERK1/2 (Invitrogen, 36880), anti-CREB (Cell Signaling, D76D11), anti-p-CREB (Millipore, 06-519), and mouse anti-c-Myc (Novus Biologicals, 9E10). Cultured hippocampal neuron images were acquired by LSM 510 laser scanning confocal microscope (Zeiss). Confocal zseries image stacks encompassing entire dendrite segments were analyzed using MetaMorph software (Universal Imaging Corporation, Downington, Pa., USA).
Live cell surface immunostaining. […] Surface-labeled APP was detected with ALEXA FLUORO-555 secondary antibodies. […]

The subject of assay [2] is dendritic spines. Kind of assay: Golgi staining, dendritic spine density and morphology in 3× Tg AD mice. It counts as in vivo. The procedure:
Golgi staining and morphological analysis of dendritic spines. Dendritic spine density and morphology analyses in the brain were conducted using the FD RAPID GOLGISTAIN KIT™ (FD NeuroTechnologies, Ellicott City, Md., USA). Mouse brains were dissected, immersed in Solutions A and B (2 weeks, room temperature, dark conditions), and then transferred to Solution C (24 h, 4° C.). A VT1000S Vibratome (Leica, Bannockburn, Ill., USA) was then used to slice brains 150 μm thick. Bright-field microscopy acquired dendritic images by Axioplan 2 (Zeiss, Oberkochen, Germany). Scion image software (Scion Corporation, Frederick, Md., USA) allowed measurement of spine head width, spine length, and linear density of cortical layers II/III and CA1 of the hippocampus. Images were coded and analyzed blind to experimental conditions. To measure dendritic spine density, we included spines from 0.2 to 2 μmin length, with at least 25 apical oblique (AO) and basal (BS) dendritic observations averaged from each animal (n=4-5 brains for 2-3 months old/group and 6-10 months old/group, n=3 brains for 13-16 months old/group). To measure spine morphology, we included spines up to 1.4 μm in width and 3.2 μm in length.
BTA-EG4 alters dendritic spine density in the cortex and hippocampus. […] In the present study, we investigated whether BTA-EG4 improves dendritic spine density in a mouse model of AD. For this study, we selected the 3× Tg AD mouse model due to its ability to model the progression of human AD (Oddo et al., 2003). […] To assess its effectiveness throughout disease progression, 2-3 month, 6-10 month, and 13-16 month old 3× Tg AD mice were injected with BTA-EG4 (30 mg/kg, i.p.) or vehicle (10% DMSO) daily for 2 weeks. The 2-week duration of treatment was selected because it increased dendritic spine density and improved memory in wild-type mice (Megill et al., 2013). After the treatment, we conducted Golgi staining to measure dendritic spine density (FIGS. 10A-10J, FIGS. 15A-15H and FIGS. 16A-16B).

For assay [3], the system named is RasGRF1, GluA1, GluA2, p-ERK, p-Elk. Kind of assay: Western blot of cortex and hippocampus, 3× Tg AD mice. It counts as in vivo. As to the method:
Western blot and analysis. 3× Tg AD mice were injected with 30 mg/kg BTA-EG4 or vehicle daily for 2 weeks. After 2 weeks, the cortex and hippocampus were dissected and homogenized with RIPA buffer. Brain lysates were reduced, boiled, and run on a polyacrylamide gel followed by transfer onto nitrocellulose membrane and incubation in the following primary antibodies: rabbit anti-RasGRF1 (Santa Cruz, C-20), rabbit anti-GluA1 (Millipore, ab1504),mouse anti-GluA2 (Neuromab), rabbit anti-p-ERK (Invitrogen, 36880), or p-Elk (Cell Signal, 9181). Primary antibodies were applied overnight, washed with TBS buffer (3 washes, 5 min each), and HRP conjugated secondary antibodies were applied for 1 h. After 1 h, membranes were washed with TBS buffer (3 washes, 5 min each) and proteins were visualized by affixing the blots to autoradiography film. The density of each band was then quantified using ImageJ software (National Institutes of Health, […].) as a percentage of control following normalization to β-actin.

Where [4] appears, read: hippocampus, 6-10 months, 30 mg/kg daily, 2 weeks.

T1 sequence (P05067 18-770): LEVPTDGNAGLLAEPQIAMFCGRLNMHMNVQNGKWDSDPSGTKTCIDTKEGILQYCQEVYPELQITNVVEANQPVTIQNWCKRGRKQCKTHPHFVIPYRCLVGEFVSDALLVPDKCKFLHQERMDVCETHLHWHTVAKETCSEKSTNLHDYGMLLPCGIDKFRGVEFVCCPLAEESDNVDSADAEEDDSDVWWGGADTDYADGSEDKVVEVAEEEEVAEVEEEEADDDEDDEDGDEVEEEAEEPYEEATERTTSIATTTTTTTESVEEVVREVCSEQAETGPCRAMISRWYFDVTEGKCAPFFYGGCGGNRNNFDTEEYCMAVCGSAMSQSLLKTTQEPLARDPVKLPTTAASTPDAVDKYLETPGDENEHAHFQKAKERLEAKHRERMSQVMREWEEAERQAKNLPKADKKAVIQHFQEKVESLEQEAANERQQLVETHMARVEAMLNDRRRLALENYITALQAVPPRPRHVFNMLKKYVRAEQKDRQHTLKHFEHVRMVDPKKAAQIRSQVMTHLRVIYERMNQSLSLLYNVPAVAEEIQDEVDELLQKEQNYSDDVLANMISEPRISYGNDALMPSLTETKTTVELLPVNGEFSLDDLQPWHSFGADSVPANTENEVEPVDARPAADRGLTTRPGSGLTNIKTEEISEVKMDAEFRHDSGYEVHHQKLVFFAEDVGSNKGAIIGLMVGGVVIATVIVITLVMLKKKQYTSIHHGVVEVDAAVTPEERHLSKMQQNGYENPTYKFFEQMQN

As to BTA-EG4, the “cell surface levels of APP” value in assay [1] was “increased”. For the same substance, the “total levels of APP” value in assay [1] is “without affecting”. For the same substance, the dendritic spine length result is on record as “neither the width nor length of dendritic spines changed” in assay [2] (13-16 months); “longer” in assay [2] (cortical layers II/III and hippocampus, 6-10 months, 30 mg/kg). Besides, the dendritic spine width entry is “neither the width nor length of dendritic spines changed” in assay [2] (13-16 months); “wider” in assay [2] (cortex and hippocampus, 6-10 months, 30 mg/kg). In addition, in assay [2] (CA1, 13-16 months, 30 mg/kg daily, 2 weeks), the hippocampal spine density entry is on record as “only a trend toward an increase”. In addition, in assay [2] (cortical neurons, 13-16 months, 30 mg/kg i.p. daily, 2 weeks), the dendritic spine density result was “improved”. Also, the “overall density of dendritic spines” value is listed as “significantly increased” in assay [2] (hippocampus CA1, 2-3 months, 30 mg/kg i.p. daily, 2 weeks); “significantly increased” in assay [2] (hippocampus CA1, 6-10 months, 30 mg/kg i.p. daily, 2 weeks); “significantly increased” in assay [2] (layers II/III of the cortex, 2-3 months, 30 mg/kg i.p. daily, 2 weeks); “significantly increased” in assay [2] (layers II/III of the cortex, 6-10 months, 30 mg/kg i.p. daily, 2 weeks). The “levels of p-Elk” value in assay [3] (6-10 months) and in assay [3] (13-16 months) was “did not alter” each time. The “levels of p-ERK and ERK” value in assay [3] (cortex and hippocampus, 6-10 months, 30 mg/kg daily, 2 weeks) is given as “did not have altered levels”. The “levels of AMPA receptor subunits” value in assay [3] (cortex and hippocampus, 13-16 months) is recorded as “no statistically significant change”. For the same substance, the GluA2 levels entry in assay [3] (cortex, 6-10 months, 30 mg/kg daily, 2 weeks) was “only a trend of an increase”; in assay [3] (setting [4]), “increased”. Moreover, the GluA1 levels entry in assay [3] (setting [4]) is reported as “without a significant change”.
